Values of other authors in patent US20210196661A1, “METHOD FOR AMELIORATION OF INSULIN RESISTANCE” (priority 2019, published 2021).

Assays:
[1] = system: integrated stress response (ISR); conditions: mice
[2] = in vivo

| half life [2] [h] | SMILES | age-related memory impairment [1] | levels of ATF4 [1] | levels of phosphorylated eIF2a [1] |
| --- | --- | --- | --- | --- |
|  | O=C(COc1ccc(Cl)cc1)NC1CCC(NC(=O)COc2ccc(Cl)cc2)CC1 (stereo not shown) [ISM] | rapidly reverses | decreases | decreases |
| 120 to 170 | N[C@@H](Cc1cc(I)c(Oc2cc(I)c(O)c(I)c2)c(I)c1)C(=O)O [T4, L-thyroxine] |  |  |  |
